Test results published in patent US8119630B2 (Arrow Therapeutics Limited, priority 2002, dated 2012).

Columns and labels:
Hep-2 cells = assay: Toxicity studies (XTT), Hep-2 cells; type: cell-based; set-up: TC50 (6d): unit not given beside the values; settings: for TC50 (6d): Table 2, Examples 75 to 82 and 125 to 184, 6d; for TC50 (2d): Table 2, Examples 75 to 82 and 125 to 184, 2d
Description: (§1) The inner 60 wells of 96 well tissue culture plates were seeded with Hep-2 cells at 4×10^4 cells/well for compound activity and toxicity studies in 100 μl of medium and incubated at 37° C. overnight or until nearing confluency.
Cells were infected with 25 μl RSV previously titrated to give 80% cell kill. To each well 25 μM of test compound were added. The final DMSO concentration was 0.5%. […] Some 0.25 μl/ml PMS were added to stock […] solution, final conc. 25 μM PMS. Then 25 μl warmed XTT/PMS solution were added to each well and incubated for 1 hour at 37° C.

RSV = assay: XTT assay, RSV-infected Hep-2 cells; type: cell-based, Respiratory Syncytial Virus (RSV); settings: Table 2, Examples 75 to 82 and 125 to 184, Hep-2 cells infected with RSV, 6 days at 37° C.
Description: Examples 75 to 82 and 125 to 184 were tested according to the protocol described below.
as §1
Cells were infected with 25 μl RSV previously titrated to give 80% cell kill. To each well 25 μM of test compound were added. The final DMSO concentration was 0.5%. Some 200 μl of sterile distilled water were added to the outer wells of the plate and incubated at 37° C. for 6 days. Some 0.25 μl/ml PMS were added to stock […] solution, final conc. 25 μM PMS. Then 25 μl warmed XTT/PMS solution were added to each well and incubated for 1 hour at 37° C.
Maximum OD450nm reading (uninfected, untreated control cells) corresponded to 100% inhibition. Minimum OD450nm readings (infected control cells) corresponded to 0% inhibition. Log 10 concentration was plotted against OD450nm and IC50 values were calculated from either reading 50% value from graph or using regression analysis.

[1] = human respiratory syncytial virus, 144 h

| Compound | TC50 (6d) (Hep-2 cells; in µM) | IC50 (RSV) [µM] | TC50 (2d) (Hep-2 cells) | IC50 (RSV; [1]) [µM] | TC50 (6d) (Hep-2 cells) |
| --- | --- | --- | --- | --- | --- |
| COC(=O)c1ccc(C(=O)NC2N=C(c3ccccc3)c3ccccc3NC2=O)c(OC)c1 (stereo not drawn) [Example 139, 3-Methoxy-N-(2-oxo-5-phenyl-2,3-dihydro-H-benzo[e][1,4]diazepin-3-yl)-terephthalamic acid methyl ester] | 98 | 9.2 | – | – | – |
| O=C(N[C@H]1N=C(c2ccccc2)c2ccccc2NC1=O)c1cccc2cc[nH]c12 [Example 81b] | 35.6 | 1.2 | – | – | – |
| 5-Methyl-furan-2-carboxylic acid (2-oxo-5-phenyl-2,3-dihydro-1H-benzo[e][1,4]diazepin-3-yl)-amide [Example 161] | 60 | 2 | 100 µM | – | – |
| COc1cccc(NC(=O)NC2N=C(c3ccccc3)c3ccccc3NC2=O)c1 (stereo not drawn) [Example 129, 1-(3-Methoxy-phenyl)-3-(2-oxo-5-phenyl-2,3-dihydro-1H-benzo[e][1,4]diazepin-3-yl)-urea] | >50 | – | – | 4.9 | – |
| O=C(NC1N=C(c2ccccc2)c2ccccc2NC1=O)C(O)Cc1ccccc1 (stereo not drawn) [Example 144, 2-Hydroxy-N-(2-oxo-5-phenyl-2,3-dihydro-1H-benzo[e][1,4]diazepin-3-yl)-3-phenyl-propionamide] | – | – | > 50 µM | 5.5 | – |
| O=C(Nc1ccsc1)NC1N=C(c2ccccc2)c2ccccc2NC1=O (stereo not drawn) [Example 171, 1-(2-Oxo-5-phenyl-2,3-dihydro-1H-benzo[e][1,4]diazepin-3-yl)-3-thiophene-3-yl-urea] | >50 | – | – | 4.8 | – |
| CCOc1ccc2ccccc2c1C(=O)NC1N=C(c2ccccc2)c2ccccc2NC1=O (stereo not drawn) [Example 175, 2-Ethoxy-naphthalene-1-carboxylic acid (2-oxo-5-phenyl-2,3-dihydro-1H-benzo[e][1,4]diazepin-3-yl)-amide] | >50 | – | – | 8.2 | – |
| O=C(NC1N=C(c2ccccc2)c2ccccc2NC1=O)c1cnccn1 (stereo not drawn) [Example 162] | >100 | 2 | > 100 µM | – | – |
| CS(=O)(=O)c1ccc(C(=O)NC2N=C(c3ccccc3)c3ccccc3NC2=O)cc1 (stereo not drawn) [Example 133, 4-Methanesulfonyl-N-(2-oxo-5-phenyl-2,3-dihydro-1H-benzo[e][1,4]diazepin-3-yl)-benzamide] | 77.2 | – | – | 6.2 | – |
| COc1ccc(C(C)(C)C)cc1C(=O)NC1N=C(c2ccccc2)c2ccccc2NC1=O (stereo not drawn) [Example 125, 5-tert-Butyl-2-methoxy-N-(2-oxo-5-phenyl-2,3-dihydro-1H-benzo[e][1,4]diazepin-3-yl)-benzamide] | >50 | – | – | 6.1 | – |
| O=C(N[C@H]1N=C(c2ccccc2)c2ccccc2NC1=O)c1ccccc1O [Example 80b, (S)-2-Hydroxy-N-(2-oxo-5-phenyl-2,3-dihydro-1H-benzo[e][1,4]diazepin-3-yl)-benzamide] | >50 | – | – | 2 | – |
| O=C(NC1CCCCC1)NC1N=C(c2ccccc2)c2ccccc2NC1=O (stereo not drawn) [Example 149, 1-Cyclohexyl-3-(2-oxo-5-phenyl-2,3-dihydro-1H-benzo[e][1,4]diazepin-3-yl)-urea] | >100 | – | > 100 µM | 1.5 | – |
| COC(=O)NC1N=C(c2ccccc2)c2ccccc2NC1=O (stereo not drawn) [Example 181, (2-Oxo-5-phenyl-2,3-dihydro-1H-benzo[e][1,4]diazepin-3-yl)-carbamic acid methyl ester] | >50 | – | – | 9.6 | – |
| 1-(2-Oxo-5-phenyl-2,3-dihydro-1H-benzo[e][1,4]diazepin-3-yl)-3-m-tolyl-urea [Example 141] | >50 | 4.3 | – | – | – |
| CC(C)(C)NC(=O)NC1N=C(c2ccccc2)c2ccccc2NC1=O (stereo not drawn) [Example 148, 1-tert-Butyl-3-(2-oxo-5-phenyl-2,3-dihydro-1H-benzo[e][1,4]diazepin-3-yl)-urea] | >100 | – | > 100 µM | 5 | – |
| Piperidine-4-carboxylic acid [5-(3-methoxy-phenyl)-2-oxo-5-phenyl-2,3-dihydro-1H-benzo[e][1,4]diazepin-3-yl]-amide [Example 167] | >100 | 9 | > 100 µM | – | – |
| O=C1Nc2ccccc2C(c2ccccc2)=NC1NC(=O)n1c(=O)[nH]c2ccccc21 (stereo not drawn) [Example 177, 2-Oxo-2,3-dihydro-benzoimidazole-1-carboxylic acid (2-oxo-5-phenyl-2,3-dihydro-1H-benzo[e][1,4]diazepin-3-yl)-amide] | >50 | – | – | 4.3 | – |
| CN(C(=O)Nc1ccccc1F)C1N=C(c2ccccc2)c2ccccc2NC1=O (stereo not drawn) [Example 146, 3-(2-Fluoro-phenyl)-1-methyl-1-(2-oxo-5-phenyl-2,3-dihydro-1H-benzo[e][1,4]diazepin-3-yl)-urea] | – | – | > 50 µM | 9.5 | – |
| Thiophene-2-carboxylic acid [5-(3-chloro-phenyl)-2-oxo-5-phenyl-2,3-dihydro-1H-benzo[e][1,4]diazepin-3-yl]-amide [Example 157] | 100 | 5 | > 100 µM | – | – |
| COc1cccc(C2=NC(NC(=O)C(C)C)C(=O)Nc3ccccc32)c1 (stereo not drawn) [Example 163] | – | 5 | >100 | – | >100 |
| CCCOc1ccccc1C(=O)NC1N=C(c2ccccc2)c2ccccc2NC1=O (stereo not drawn) [Example 137, N-(2-Oxo-5-phenyl-2,3-dihydro-1H-benzo[e][1,4]diazepin-3-yl)-2-propoxy-benzamide] | >50 | – | – | 8.3 | – |
| N-[5-(3-Chloro-phenyl)-2-oxo-5-phenyl-2,3-dihydro-1H-benzo[e][1,4]diazepin-3-yl)acetamide [Example 154] | >100 | 3 | > 100 µM | – | – |
| CC(C)(C)OC(=O)NC1N=C(c2ccccc2)c2ccccc2NC1=O (stereo not drawn) [Example 178, (2-Oxo-5-phenyl-2,3-dihydro-1H-benzo[e][1,4]diazepin-3-yl)carbamic acid tert-butyl ester] | >50 | – | – | 4.3 | – |
| CCNC(=O)NC1N=C(c2ccccc2)c2ccccc2NC1=O (stereo not drawn) [Example 150, 1-Ethyl-3-(2-oxo-5-phenyl-2,3-dihydro-1H-benzo[e][1,4]diazepin-3-yl)-urea] | >100 | – | > 100 µM | 2 | – |
| COC(=O)c1ccc(C(=O)NC2N=C(c3ccccc3)c3ccccc3NC2=O)cc1 (stereo not drawn) [Example 134, N-(2-Oxo-5-phenyl-2,3-dihydro-1H-benzo[e][1,4]diazepin-3-yl)terephthalamic acid methyl ester] | 77.1 | – | – | 6.5 | – |
| O=C(NC1N=C(c2ccccc2)c2ccccc2NC1=O)c1cn[nH]c1 (stereo not drawn) [Example 173, 1H-Pyrazole-4-carboxylic acid (2-oxo-5-phenyl-2,3-dihydro-1H-benzo[e][1,4]diazepin-3-yl)-amide] | 95 | – | – | 8.3 | – |
| O=C(NC1N=C(c2ccccc2)c2ccccc2NC1=O)c1cccc2cc[nH]c12 (stereo not drawn) [Example 81a, 1H-Indole-7-carboxylic acid (2-oxo-5-phenyl-2,3-dihydro-1H-benzo[e][1,4]diazepin-3-yl)-amide] | 63 | – | – | 8.4 | – |
